The nature of series [1]: Cytotoxicity assay (intracellular ATP levels) in Huh5-2 replicon cells. It counts as cell-based. The note with it: human, Huh5-2 cells, read-out: HCV Replicon 1b CC50. The method, then: (§1) All synthesized compounds were tested against HCV genotype 1b Con-1 subgenomic replicon in the Huh-5-2 stable cell line. Specifically, their activity against viral replication was estimated by measuring firefly luciferase, which is co-expressed by the bicistronic replicon, and their half-maximal effective concentrations (EC50) were determined. In parallel, the half-maximal cytotoxic concentrations (CC50) of the compounds were estimated, and their selective indexes (SI50: CC50/ EC50) were calculated. All novel synthesized compounds were active against HCV 1b with EC50 < 1 µM except for compound 4b (Table 3).
Intracellular ATP levels were measured to determine the cytotoxicity of the compounds in the treated cells. In 96-well plates, 10^4 cells per well were seeded, incubated with serial dilutions of the compounds or DMSO as a control for 72 h at 37 °C (5% CO2) and lysed for ATP measurement. ATP levels were measured using the ViaLight HS BioAssay kit (Lonza, Basel, Switzerland) in a GloMax 20/20 single-tube luminometer (Promega) for 1 s, according to the manufacturer’s protocol. Values were normalized to total protein amounts and used to determine the compound concentration causing 50% cell death (CC50). Nonlinear regression analysis was performed using Prism 5.0 software (GraphPad Software Inc., San Diego, CA, USA).

In series [2] the test system is HCV genotype 1b Con-1 subgenomic replicon. The series is described as follows: Anti-HCV luciferase assay, genotype 1b (Con1) subgenomic replicon in Huh5-2 cells. The class given is cell-based, Hepatitis C virus. The note with it: for HCV Replicon 1b SI50: CC50/EC50, Huh5-2 cells. The method, then: as §1
Huh5-2 [65] and Huh7-JFH1 [66] stable cell lines harbor the subgenomic HCV reporter replicon I389luc-ubi-neo/NS3-3′/Con1/5.1 (genotype 1b; strain Con1) and I389luc-ubi-neo/NS3-3′_dg_JFH1 (genotype 2a, JFH1 strain), respectively (kindly provided by R. Bartenschlager, Heidelberg University, Heidelberg, Germany). Huh7.5-3a and Huh7.5-4a stable cell lines harbor the subgenomic HCV reporter replicon S52-SG (Feo) (AII) (genotype 3a; S52 strain) and ED43-SG (Feo) (VYG) (genotype 4a; ED43 strain), respectively (viral constructs kindly provided by C.M. Rice, Rockefeller University, New York, NY, USA). These replicons carry as a first cistron firefly luciferase (F-Luc) and neomycin phosphotransferase genes under the translational control of the HCV internal ribosome entry site (IRES), followed by HCV NS3 to NS5B proteins under the control of the EMCV IRES.
The anti-HCV assay in replicon cells was performed by seeding 1 × 10^4 cells per well in a 96-well plate. After 24 h of incubation at 37 °C (5% CO2) and medium removal, serial dilutions of the test compounds in complete DMEM were added. Cells were lysed after 72 h, and F-Luc activity was measured. The anti-HCV assay for the full-length viral construct H77S.3/GLuc2A was performed after electroporation of Huh7-Lunet cells with viral RNA. Cells were seeded in 96-well plates, the medium was removed 24 h after electroporation, and serial dilutions of the compounds in complete DMEM were added. At 72 h post-treatment, cell supernatants were collected, and G-Luc activity was measured. In addition, the cells were lysed for total protein quantification.
Relative luminescence units (RLU) were expressed as a percentage of the respective units derived from DMSO-treated cells (control). The half-maximal effective concentration (EC50), defined as the concentration of compound that reduces luciferase signal by 50%, was calculated by dose-response curve analysis using Prism 5.0 software (GraphPad Software Inc., San Diego, CA, USA).
The F-Luc activity was measured using the Luciferase Assay System (Promega, Madison, WI, USA), as recommended by the manufacturer. The G-Luc activity was measured using 12 μM coelenterazine (Promega) in assay buffer (50 mM potassium phosphate, pH 7.4, 500 mM NaCl, 1 mM EDTA). Measurements were carried out using a GloMax 20/20 single tube luminometer (Promega) for 10 s. The F-Luc activity was normalized to the total protein amount determined using the Bradford assay reagent (Pierce, Waltham, MA, USA).
On the technique in general: Replicon systems follow genome replication, usually without infectious particles.

[3] abbreviates: Hepatitis C virus, Huh-5-2, 72 h, Huh5-2 cells, Con1 strain, F-Luc, 72 h, mean of three experiments, read-out: HCV Replicon 1b EC50.
Where [4] appears, read: Huh5-2 cells, Con1 strain, F-Luc, 72 h, mean of three experiments, read-out: HCV Replicon 1b EC50.
Setting [5] is: Hepatitis C virus, Huh-5-2, 72 h, read-out: HCV Replicon 1b EC50, Huh5-2 cells, Con1 strain, F-Luc, 72 h, mean of three experiments.

Like-named read-outs stand apart in the source and are kept apart here.

Broadly, the CC50 is the concentration giving 50% cytotoxicity. One may read the EC50 as the concentration that produces a half-maximal response. One may read the melting point as the temperature, or range, at which the solid turns liquid.

As to `COC(=O)N[C@@H](CC(C)C)C(=O)N1CCC[C@H]1c1ncc(-c2ccc(C#CC#Cc3ccc(-c4cnc([C@@H]5CCCN5C(=O)[C@H](CC(C)C)NC(=O)OC)[nH]4)cc3)cc2)[nH]1` [Compound 5b, Dimethyl ((2S,2′S)-((2S,2′S)-((buta-1,3-diyne-1,4-diylbis(4,1-phenylene))bis(1H-imidazole-5,2-diyl))bis(pyrrolidine-2,1-diyl))bis(4-methyl-1-oxopentane-1,2-diyl))dicarbamate], the melting point was in the range of 124 to 126 °C. Also, in series [1], the CC50 at 72 h was over 100000 nM. Moreover, in series [2], the “HCV Replicon 1b SI50” value is over 6203.47. Also, in series [2] (setting [3]), the EC50 is 16.1 nM. Further, in series [2] (setting [4]), the 50% effective concentration (EC50) is 16.1 nM.

With `COC(=O)N[C@H](CC(C)C)C(=O)N1CCC[C@H]1c1ncc(-c2cccc(C#CC#Cc3cccc(-c4cnc([C@@H]5CCCN5C(=O)[C@@H](CC(C)C)NC(=O)OC)[nH]4)c3)c2)[nH]1` [Compound 6a, Dimethyl ((2R,2′R)-((2S,2′S)-((buta-1,3-diyne-1,4-diylbis(3,1-phenylene))bis(1H-imidazole-5,2-diyl))bis(pyrrolidine-2,1-diyl))bis(4-methyl-1-oxopentane-1,2-diyl))dicarbamate], the melting point is 111 to 113 °C. For the same molecule, the CC50 at 72 h in series [1] is over 100000 nM. Besides, the “HCV Replicon 1b SI50” value in series [2] is over 1034.23. Further, the 50% effective concentration (EC50) in series [2] (setting [5]) turned out to be 96.6 nM. In addition, the EC50 in series [2] (setting [4]) worked out at 96.7 nM.

`COC(=O)N[C@H](CC(C)C)C(=O)N1CCC[C@H]1c1ncc(-c2ccc(C#CC#Cc3ccc(-c4cnc([C@@H]5CCCN5C(=O)[C@@H](CC(C)C)NC(=O)OC)[nH]4)cc3)cc2)[nH]1` [Compound 6b, Dimethyl ((2R,2′R)-((2S,2′S)-((buta-1,3-diyne-1,4-diylbis(4,1-phenylene))bis(1H-imidazole-5,2-diyl))bis(pyrrolidine-2,1-diyl))bis(4-methyl-1-oxopentane-1,2-diyl))dicarbamate] gave a melting point of 129 to 131 °C. For the same molecule, the CC50 at 72 h in series [1] was over 100000 nM. Moreover, the “HCV Replicon 1b SI50” value in series [2] was over 1512.63. The EC50 in series [2] (setting [5]) worked out at 42.1 nM. Further, in series [2] (Hepatitis C virus, Huh-5-2, Table S1, in vitro result versus genotype 1b, read-out: NS5A EC50), the EC50 was found to be 66.1 nM.

For `CCOC(=O)N[C@@H](CC(C)C)C(=O)N1CCC[C@H]1c1ncc(-c2ccc(C#CC#Cc3ccc(-c4cnc([C@@H]5CCCN5C(=O)[C@H](CC(C)C)NC(=O)OCC)[nH]4)cc3)cc2)[nH]1` [Compound 7b, Diethyl ((2S,2′S)-((2S,2′S)-((buta-1,3-diyne-1,4-diylbis(4,1-phenylene))bis(1H-imidazole-5,2-diyl))bis(pyrrolidine-2,1-diyl))bis(4-methyl-1-oxopentane-1,2-diyl))dicarbamate], the melting point was in the range of 118 to 120 °C. The CC50 at 72 h in series [1] was over 100000 nM. For the same molecule, the “HCV Replicon 1b SI50” value in series [2] is over 1699.23. Also, the EC50 in series [2] (setting [3]) was found to be 58.9 nM.

`CCOC(=O)N[C@H](CC(C)C)C(=O)N1CCC[C@H]1c1ncc(-c2cccc(C#CC#Cc3cccc(-c4cnc([C@@H]5CCCN5C(=O)[C@@H](CC(C)C)NC(=O)OCC)[nH]4)c3)c2)[nH]1` [Compound 8a, Diethyl ((2R,2′R)-((2S,2′S)-((buta-1,3-diyne-1,4-diylbis(3,1-phenylene))bis(1H-imidazole-5,2-diyl))bis(pyrrolidine-2,1-diyl))bis(4-methyl-1-oxopentane-1,2-diyl))dicarbamate] returned a melting point of 109 to 111 °C. Besides, in series [1], the CC50 at 72 h was over 100000 nM. For the same molecule, the “HCV Replicon 1b SI50” value in series [2] was over 1170.82. For the same molecule, in series [2] (setting [5]), the EC50 came out at 85.4 nM. Further, the EC50 in series [2] (setting [4]) came out at 85.4 nM.

With `CCOC(=O)N[C@H](CC(C)C)C(=O)N1CCC[C@H]1c1ncc(-c2ccc(C#CC#Cc3ccc(-c4cnc([C@@H]5CCCN5C(=O)[C@@H](CC(C)C)NC(=O)OCC)[nH]4)cc3)cc2)[nH]1` [Compound 8b, Diethyl ((2R,2′R)-((2S,2′S)-((buta-1,3-diyne-1,4-diylbis(4,1-phenylene))bis(1H-imidazole-5,2-diyl))bis(pyrrolidine-2,1-diyl))bis(4-methyl-1-oxopentane-1,2-diyl))dicarbamate], the melting point fell in the range of 129 to 132 °C. Moreover, the CC50 at 72 h in series [1] was over 100000 nM. The “HCV Replicon 1b SI50” value in series [2] is reported as over 1289.98. Further, the EC50 in series [2] (setting [3]) amounted to 77.5 nM.

In turn, `COC(=O)N[C@H](C(=O)N1CCC[C@H]1c1ncc(-c2cccc(C#CC#Cc3cccc(-c4cnc([C@@H]5CCCN5C(=O)[C@@H](NC(=O)OC)c5ccccc5)[nH]4)c3)c2)[nH]1)c1ccccc1` [Compound 9a, Dimethyl ((1S,1′S)-((2S,2′S)-((buta-1,3-diyne-1,4-diylbis(3,1-phenylene))bis(1H-imidazole-5,2-diyl))bis(pyrrolidine-2,1-diyl))bis(2-oxo-1-phenylethane-2,1-diyl))dicarbamate] registered a melting point of 125 to 127 °C. The CC50 at 72 h in series [1] was over 100000 nM. Also, the “HCV Replicon 1b SI50” value in series [2] is reported as over 1611.86. In addition, the EC50 in series [2] (setting [5]) turned out to be 62 nM. Besides, the EC50 in series [2] (setting [4]) turned out to be 62 nM.

For the molecule `COC(=O)N[C@@H](C(=O)N1CCC[C@H]1c1ncc(-c2ccc(C#CC#Cc3ccc(-c4cnc([C@@H]5CCCN5C(=O)[C@H](NC(=O)OC)c5ccccc5)[nH]4)cc3)cc2)[nH]1)c1ccccc1` [Compound 10b, Dimethyl ((1R,1′R)-((2S,2′S)-((buta-1,3-diyne-1,4-diylbis(4,1-phenylene))bis(1H-imidazole-5,2-diyl))bis(pyrrolidine-2,1-diyl))bis(2-oxo-1-phenylethane-2,1-diyl))dicarbamate], the melting point lay in the range of 125 to 127 °C. The CC50 at 72 h in series [1] was over 100000 nM. Also, the “HCV Replicon 1b SI50” value in series [2] is over 1180.77. Besides, the EC50 in series [2] (setting [3]) came to 84.7 nM.

These data come from article PMC9146377, “Design and Synthesis of Novel Bis-Imidazolyl Phenyl Butadiyne Derivatives as HCV NS5A Inhibitors” (Pharmaceuticals, 2022).
